Values belong to the compound of their own block, whether it stands above or below them.
Tested on: 171881-019-R-J1-PDC tumor spheroid viability
Test: Anticancer human tumor 171881-019-R-J1-PDC patient-derived invasive breast carcinoma cell line growth inhibition [PI3K]
Settings: spheroids with HUVEC and MSC; for viability, T/C: stronger effect = lower value
Method in brief: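 Complex 3D spheroids (cancer cells + endothelial HUVEC + mesenchymal stem cells); drug pairs of targeted agent x inavolisib/alpelisib/duvelisib/copanlisib; half-log series from ~Cmax, max 10 microM if Cmax unknown; endpoint viability.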

[1] = curve of first compound, second compound 0.0316 µM
[2] = curve of first compound, second compound 0.1 µM
[3] = curve of first compound, second compound 0.316 µM
[4] = curve of first compound, second compound 1 µM
[5] = curve of first compound, second compound 3.16 µM
[6] = curve of first compound, second compound 10 µM
[7] = second compound 0.0316 µM, first compound 0.0316 µM
[8] = second compound 0.0316 µM, first compound 0.1 µM
[9] = second compound 0.0316 µM, first compound 0.316 µM
[10] = second compound 0.0316 µM, first compound 1 µM
[11] = second compound 0.0316 µM, first compound 3.16 µM
[12] = second compound 0.0316 µM, first compound 10 µM
[13] = second compound 0.1 µM, first compound 0.0316 µM
[14] = second compound 0.1 µM, first compound 0.1 µM
[15] = second compound 0.1 µM, first compound 0.316 µM
[16] = second compound 0.1 µM, first compound 1 µM
[17] = second compound 0.1 µM, first compound 3.16 µM
[18] = second compound 0.1 µM, first compound 10 µM
[19] = second compound 0.316 µM, first compound 0.0316 µM
[20] = second compound 0.316 µM, first compound 0.1 µM
[21] = second compound 0.316 µM, first compound 0.316 µM
[22] = second compound 0.316 µM, first compound 1 µM
[23] = second compound 0.316 µM, first compound 3.16 µM
[24] = second compound 0.316 µM, first compound 10 µM
[25] = second compound 1 µM, first compound 0.0316 µM
[26] = second compound 1 µM, first compound 0.1 µM
[27] = second compound 1 µM, first compound 0.316 µM
[28] = second compound 1 µM, first compound 1 µM
[29] = second compound 1 µM, first compound 3.16 µM
[30] = second compound 1 µM, first compound 10 µM
[31] = second compound 3.16 µM, first compound 0.0316 µM
[32] = second compound 3.16 µM, first compound 0.1 µM
[33] = second compound 3.16 µM, first compound 0.316 µM
[34] = second compound 3.16 µM, first compound 1 µM
[35] = second compound 3.16 µM, first compound 3.16 µM
[36] = second compound 3.16 µM, first compound 10 µM
[37] = second compound 10 µM, first compound 0.0316 µM
[38] = second compound 10 µM, first compound 0.1 µM
[39] = second compound 10 µM, first compound 0.316 µM
[40] = second compound 10 µM, first compound 1 µM
[41] = second compound 10 µM, first compound 3.16 µM
[42] = second compound 10 µM, first compound 10 µM
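Also: spheroids exposed to compound for 7 days before viability read.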
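For viability, T/C in this document: 100% = DMSO vehicle-treated spheroids.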

SMILES: CNC(=O)c1ccc(N2C(=S)N(c3ccc(C#N)c(C(F)(F)F)c3)C(=O)C2(C)C)cc1F + CC(Nc1ncnc2nc[nH]c12)c1cc2cccc(Cl)c2c(=O)n1-c1ccccc1
IC50 [1]: > 10 µM
IC50 [2]: > 10 µM
IC50 [3]: > 10 µM
IC50 [4]: > 10 µM
IC50 [5]: > 10 µM
IC50 [6]: 4.88 µM
viability, T/C [7]: 91.6%
viability, T/C [8]: 78.6%
viability, T/C [9]: 80.1%
viability, T/C [10]: 86.4%
viability, T/C [11]: 86.1%
viability, T/C [12]: 71.2%
viability, T/C [13]: 88.8%
viability, T/C [14]: 85.9%
viability, T/C [15]: 78.5%
viability, T/C [16]: 85.6%
viability, T/C [17]: 83.3%
viability, T/C [18]: 69.8%
viability, T/C [19]: 92.1%
viability, T/C [20]: 93.3%
viability, T/C [21]: 85.3%
viability, T/C [22]: 92.4%
viability, T/C [23]: 77%
viability, T/C [24]: 69.9%
viability, T/C [25]: 89.9%
viability, T/C [26]: 100%
viability, T/C [27]: 85.2%
viability, T/C [28]: 86.9%
viability, T/C [29]: 93.1%
viability, T/C [30]: 70.7%
viability, T/C [31]: 87.2%
viability, T/C [32]: 85.9%
viability, T/C [33]: 83.7%
viability, T/C [34]: 80.1%
viability, T/C [35]: 80.9%
viability, T/C [36]: 64.5%
viability, T/C [37]: 61.4%
viability, T/C [38]: 58.2%
viability, T/C [39]: 60.4%
viability, T/C [40]: 57.2%
viability, T/C [41]: 54%
viability, T/C [42]: 43.7%

SMILES: CC(Cn1ccc(-c2ccc(C#N)c(Cl)c2)n1)NC(=O)c1cc(C(C)O)[nH]n1 (stereo not given)
viability, T/C (compound 0.0316 µM): 95.5% [middle of 4 runs]
viability, T/C (compound 0.1 µM): 91.1% [middle of 4 runs]
viability, T/C (compound 0.316 µM): 92.4% [middle of 4 runs]
viability, T/C (compound 1 µM): 93.4% [middle of 4 runs]
viability, T/C (compound 3.16 µM): 87.9% [middle of 4 runs]
viability, T/C (compound 10 µM): 64.3% [middle of 4 runs]
IC50 (curve of compound): > 10 µM

SMILES: C=CC(=O)N1CCN(c2nc(=O)n(-c3c(C)ccnc3C(C)C)c3nc(-c4c(O)cccc4F)c(F)cc23)C(C)C1 (stereo not given) + CC(Nc1ncnc2nc[nH]c12)c1cc2cccc(Cl)c2c(=O)n1-c1ccccc1
IC50 [1]: > 10 µM
IC50 [2]: > 10 µM
IC50 [3]: > 10 µM
IC50 [4]: > 10 µM
IC50 [5]: 9.1 µM
IC50 [6]: 5.29 µM
viability, T/C [7]: 95.3%
viability, T/C [8]: 94.3%
viability, T/C [9]: 94.6%
viability, T/C [10]: 94.3%
viability, T/C [11]: 106%
viability, T/C [12]: 58.9%
viability, T/C [13]: 104%
viability, T/C [14]: 88.7%
viability, T/C [15]: 87.2%
viability, T/C [16]: 84.1%
viability, T/C [17]: 108%
viability, T/C [18]: 57.6%
viability, T/C [19]: 108%
viability, T/C [20]: 103%
viability, T/C [21]: 98.9%
viability, T/C [22]: 112%
viability, T/C [23]: 105%
viability, T/C [24]: 61%
viability, T/C [25]: 101%
viability, T/C [26]: 105%
viability, T/C [27]: 106%
viability, T/C [28]: 112%
viability, T/C [29]: 99.4%
viability, T/C [30]: 53.4%
viability, T/C [31]: 96.3%
viability, T/C [32]: 88.3%
viability, T/C [33]: 90.6%
viability, T/C [34]: 93.1%
viability, T/C [35]: 88.2%
viability, T/C [36]: 46.6%
viability, T/C [37]: 63.9%
viability, T/C [38]: 60.9%
viability, T/C [39]: 65.6%
viability, T/C [40]: 68.6%
viability, T/C [41]: 64.5%
viability, T/C [42]: 32%

The next lines start with results.

IC50 [1]: 3.84 µM
IC50 [2]: 3.34 µM
IC50 [3]: 1.53 µM
IC50 [4]: < 0.0316 µM
IC50 [5]: < 0.0316 µM
IC50 [6]: < 0.0316 µM
SMILES: CC1(C)CCC(CN2CCN(c3ccc(C(=O)NS(=O)(=O)c4ccc(NCC5CCOCC5)c([N+](=O)[O-])c4)c(Oc4cnc5[nH]ccc5c4)c3)CC2)=C(c2ccc(Cl)cc2)C1 + Cc1nc(NC(=O)N2CCCC2C(N)=O)sc1-c1ccnc(C(C)(C)C(F)(F)F)c1
viability, T/C [7]: 102%
viability, T/C [8]: 86.9%
viability, T/C [9]: 90.8%
viability, T/C [10]: 81.5%
viability, T/C [11]: 56.6%
viability, T/C [12]: 13.9%
viability, T/C [13]: 94.3%
viability, T/C [14]: 70.6%
viability, T/C [15]: 75.5%
viability, T/C [16]: 73.7%
viability, T/C [17]: 52%
viability, T/C [18]: 13.1%
viability, T/C [19]: 54.8%
viability, T/C [20]: 52.6%
viability, T/C [21]: 56.1%
viability, T/C [22]: 57.6%
viability, T/C [23]: 41%
viability, T/C [24]: 10.3%
viability, T/C [25]: 33.8%
viability, T/C [26]: 34.3%
viability, T/C [27]: 33.6%
viability, T/C [28]: 33.4%
viability, T/C [29]: 31.6%
viability, T/C [30]: 8.49%
viability, T/C [31]: 13.2%
viability, T/C [32]: 14.2%
viability, T/C [33]: 12.7%
viability, T/C [34]: 14.6%
viability, T/C [35]: 15.9%
viability, T/C [36]: 5.35%
viability, T/C [37]: 3.36%
viability, T/C [38]: 3.47%
viability, T/C [39]: 3.28%
viability, T/C [40]: 3.12%
viability, T/C [41]: 3.52%
viability, T/C [42]: 2.22%

IC50 (curve of first compound, second compound 0.00316 µM): 4 µM
IC50 (curve of first compound, second compound 0.01 µM): < 0.0316 µM
IC50 [1]: < 0.0316 µM
IC50 [2]: < 0.0316 µM
IC50 [3]: < 0.0316 µM
IC50 [4]: < 0.0316 µM
SMILES: CC1(C)CCC(Nc2ncc(C(F)(F)F)c(-c3c[nH]c4c(P(C)(C)=O)c(C#N)ccc34)n2)CN1 (stereo not given) + COc1c(OCCCN2CCOCC2)ccc2c3n(c(=NC(=O)c4cnc(N)nc4)nc12)CCN3
viability, T/C (second compound 0.00316 µM, first compound 0.0316 µM): 51.9%
viability, T/C (second compound 0.00316 µM, first compound 0.1 µM): 57.2%
viability, T/C (second compound 0.00316 µM, first compound 0.316 µM): 60.6%
viability, T/C (second compound 0.00316 µM, first compound 1 µM): 69%
viability, T/C (second compound 0.00316 µM, first compound 3.16 µM): 63.2%
viability, T/C (second compound 0.00316 µM, first compound 10 µM): 9.56%
viability, T/C (second compound 0.01 µM, first compound 0.0316 µM): 44.6%
viability, T/C (second compound 0.01 µM, first compound 0.1 µM): 49.3%
viability, T/C (second compound 0.01 µM, first compound 0.316 µM): 50.9%
viability, T/C (second compound 0.01 µM, first compound 1 µM): 55.3%
viability, T/C (second compound 0.01 µM, first compound 3.16 µM): 45.5%
viability, T/C (second compound 0.01 µM, first compound 10 µM): 3.97%
viability, T/C [7]: 23.4%
viability, T/C [8]: 27.9%
viability, T/C [9]: 27.1%
viability, T/C [10]: 33.2%
viability, T/C [11]: 23.2%
viability, T/C [12]: 1.05%
viability, T/C [13]: 11.1%
viability, T/C [14]: 11.1%
viability, T/C [15]: 11.3%
viability, T/C [16]: 12.7%
viability, T/C [17]: 7.29%
viability, T/C [18]: 0.37%
viability, T/C [19]: 2.05%
viability, T/C [20]: 1.65%
viability, T/C [21]: 1.41%
viability, T/C [22]: 1.53%
viability, T/C [23]: 0.65%
viability, T/C [24]: 0.12%
viability, T/C [25]: 1.55%
viability, T/C [26]: 0.66%
viability, T/C [27]: 0.6%
viability, T/C [28]: 0.51%
viability, T/C [29]: 1.51%
viability, T/C [30]: 0.25%
